Experimental findings from PubChem BioAssay AID1996 are described below.

≈ marks a conversion by molar mass, not a printed value.

The conditions of the series: buffer; pH 7.4; 200.0 µM.
`CCOC(=O)c1ccc2nc(C)c(C)nc2c1` returned a solubility (kinetic) of 31.3 µg/mL (≈ 136 µM).
`O=S(=O)(c1ccc2[nH]c3c(c2c1)CCCC3)N1CCCCC1` showed a kinetic solubility of 12.3 µg/mL (≈ 38.6 µM).
To `COC(=O)c1ccc(/C=C/C(=O)OCC(=O)Nc2cc(C)on2)cc1` belongs 3 µg/mL (≈ 8.71 µM); to `COc1ccccc1C(=O)Nc1ccccc1N1CCCCC1`, 1 µg/mL (≈ 3.22 µM).
To `CCOC(=O)COc1nc(C)cc(C(F)(F)F)c1C#N` belongs 36 µg/mL (≈ 125 µM); to `CC(C(=O)N1CCN(c2ccccc2)CC1)c1ccc([N+](=O)[O-])cc1` (stereo not given), 40.7 µg/mL (≈ 120 µM).
With `O=C(c1c(Cl)cccc1Cl)N1CCN(c2cccc3[nH]ccc23)CC1` the figure was 4.8 µg/mL (≈ 12.8 µM); with `Cc1nc(NC(=S)NC(=O)c2ccccc2)sc1C`, 0.3 µg/mL (≈ 1.03 µM).
`Nc1cc(C(=O)OCC(=O)NCCC2=CCCCC2)ccc1Cl` came in with a solubility (kinetic) of 9.4 µg/mL (≈ 27.9 µM). This solubility kinetic lies about 31-fold higher than the previous one.
`Cc1ncc(CN2CCC(CO)(Cc3ccccc3)CC2)s1` yielded a kinetic solubility of 45.5 µg/mL (≈ 144 µM).
With `CCn1c(SCc2cccc(OC)c2)nc2ccccc2c1=O`, the solubility (kinetic) is 0.8 µg/mL (≈ 2.45 µM).
For `Cc1cc(C(=O)N(C)Cc2c(F)cccc2Cl)c2ccccc2n1`, the solubility (kinetic) came out at 42.4 µg/mL (≈ 124 µM). Compared with the last molecule, the solubility kinetic is about 53-fold higher.
With `COc1ccccc1/C=C/C(=O)NCC(=O)N/N=C/c1ccc(C)o1`, the kinetic solubility was more than 51.2 µg/mL.
Molecule `C/C(=N\NC(=O)c1cc(C)nc2ccccc12)c1ccccn1` returned a kinetic solubility of more than 45.7 µg/mL.
To `CC(C)c1ccc(Nc2ccc(C(=O)O)cc2[N+](=O)[O-])cc1` belongs more than 45 µg/mL; to `Cc1ccc(C)c(OCCCCN2CCNCC2)c1C.O=C(O)C(=O)O`, more than 55 µg/mL; to `O=C(CC1CCOCC1)Nc1ccc(Cl)c(Cl)c1`, more than 43.2 µg/mL.
To `O=C(Cc1ccccc1[N+](=O)[O-])NCc1ccco1` belongs more than 39 µg/mL; to `Cc1nc(-c2ccccc2)sc1C(=O)/C=C/N(C)C`, 36.3 µg/mL (≈ 133 µM); to `CC(=O)c1cnc(-c2cccc(Cl)c2)s1`, 1.3 µg/mL (≈ 5.47 µM).
Molecule `c1ccc(CNCCc2c[nH]c3ccccc23)cc1` gave a solubility (kinetic) of 37.2 µg/mL (≈ 149 µM).
With `Cc1ccc(Cl)cc1NC(=O)C1C2CCC(O2)C1C(=O)O` (stereo not given), the solubility (kinetic) is more than 46.5 µg/mL.
With `Cc1ccc(CNC(=O)C(CC(C)C)OC(=O)c2ccco2)cc1` (stereo not given) the figure was 11.2 µg/mL (≈ 34 µM); with `O=C(Nc1ccccc1F)c1ccc2c(c1)OCO2`, more than 38.9 µg/mL; with `CC(NC(=O)c1ccco1)c1nc(-c2ccccc2Cl)no1` (stereo not given), more than 47.7 µg/mL.
With `FC(F)Sc1nc2ccccc2[nH]1` the figure was more than 30 µg/mL; with `CSc1nsc(SCC(=O)Nc2ccc(C(=O)O)cc2)n1`, more than 51.2 µg/mL; with `C[C@@H](NC(=O)[C@@H]1Cc2ccccc2CN1)C(=O)NC1CCCC1`, more than 47.3 µg/mL.
With `CCCCCCN1C=CC(=C2C(=O)c3ccccc3C2=O)C=C1` the figure was less than 0.7 µg/mL; with `Cc1cccc(OCC(=O)NCCCNC(=O)c2cccnc2)c1`, more than 49.1 µg/mL.
As for `CC(=O)Nc1ccc(S(=O)(=O)N(C)CC(=O)NNC(=O)Cc2nc3ccccc3n2C)cc1`, the kinetic solubility is more than 70.9 µg/mL.
In turn, `O=C(NCc1ccccc1)C1CCCN(c2cnccn2)C1` (stereo not given) showed a kinetic solubility of more than 44.5 µg/mL.
For the molecule `O=C(NC(=S)Nc1ccc(Br)cn1)c1cccnc1`, the kinetic solubility is 3 µg/mL (≈ 8.9 µM).
To `COc1ccc2c(c1OC)C(=O)N(c1ccc(O)cc1)C2` belongs 6.3 µg/mL (≈ 22.1 µM); to `CC(=O)c1ccc(S(=O)(=O)N2CCN(CC#N)CC2)cc1`, 45.8 µg/mL (≈ 149 µM).
With `NC(=O)C1CCN(C(=O)c2cc(-c3ccc(Cl)s3)nc3ccccc23)CC1` the figure was 9.4 µg/mL (≈ 23.5 µM).
To `CCc1ccccc1NC(=O)c1ccccc1N1C(=O)C2C3C=CC(C3)C2C1=O` (stereo not given) belongs 43.4 µg/mL (≈ 112 µM).
The molecule `Cc1nn(C)c(C)c1NS(=O)(=O)c1ccc(Cl)s1` yielded a kinetic solubility of more than 45.9 µg/mL.
To `Fc1cc(Br)ccc1NC(=S)Nc1cccnc1` belongs 44.8 µg/mL (≈ 137 µM).
To `O=C(NC(=S)NCc1ccccc1)c1ccccc1Br` belongs less than 0.4 µg/mL; to `O=C(/C=C/Nc1nccs1)C(F)(F)Cl`, 33.6 µg/mL (≈ 141 µM).
With `COc1cccc(NC(=O)COc2cccnc2[N+](=O)[O-])c1` the figure was 5.8 µg/mL (≈ 19.1 µM); with `Cc1ccc(OC(C)C(=O)N2CC(=O)Nc3ccccc32)cc1` (stereo not given), more than 46.6 µg/mL; with `COc1ccc(-c2nc(NC(C)=O)sc2-c2ccccc2)cc1`, 4 µg/mL (≈ 12.3 µM).
In turn, `O=C(/C=C/c1cccc(C(F)(F)F)c1)N1CCN(c2ccccn2)CC1` gave a solubility (kinetic) of 4 µg/mL (≈ 11.1 µM).
To `COc1ccc(C2NC(=O)NC3=C2CCc2ccccc23)cc1` (stereo not given) belongs 18.1 µg/mL (≈ 59.1 µM); to `CCCCn1c(=O)[nH]c(=O)c2c1nc(-c1ccccn1)n2CC`, 18.7 µg/mL (≈ 59.7 µM).
To `O=C(c1ccc(S(=O)(=O)N2CCCC2)cc1)N1CCCCCC1` belongs more than 50.5 µg/mL; to `Cc1ccccc1NC(=O)c1ccc2ccccc2c1`, 1.2 µg/mL (≈ 4.59 µM); to `Cc1ccc2c(C(=O)CN3CC(C)CC(C)C3)c(C)[nH]c2c1` (stereo not given), 38.6 µg/mL (≈ 129 µM).
In the case of `COc1ccc(-n2c(C)c(C(=O)O)c3cc(OC)c4ccccc4c32)cc1`, the solubility (kinetic) is less than 0.8 µg/mL.
To `O=C1/C(=C\c2cccnc2)N2CCC1CC2` belongs more than 32.1 µg/mL; to `NC(=O)c1cc[n+](Cc2ccccc2Cl)cc1.[Br-]`, more than 49.1 µg/mL; to `O=C(COC(=O)c1ccccn1)c1ccc([N+](=O)[O-])cc1`, 39.9 µg/mL (≈ 139 µM).
With `N#Cc1c(Nc2ccccc2Cl)s[nH]c1=O` the figure was more than 37.8 µg/mL.
The molecule `Cc1cc(C)nc(SCC(=O)Nc2nonc2N)n1` showed a solubility (kinetic) of more than 42 µg/mL.
`Cc1c(Cl)cccc1NS(=O)(=O)c1cccc2nsnc12` had a solubility (kinetic) of more than 51 µg/mL.
In turn, `COc1ccc(/C=C/C(=O)NC2=NCCS2)cc1OC` yielded a kinetic solubility of 1.5 µg/mL (≈ 5.13 µM).
To `Cc1ccc(SCC(=O)OCC(=O)Nc2ccc3[nH]c(=O)[nH]c3c2)cc1C` belongs 5.8 µg/mL (≈ 15 µM); to `O=C(NCC(c1ccco1)N1CCOCC1)c1ccccc1` (stereo not given), more than 45.1 µg/mL; to `CCOc1ccc(C(=O)NCC(=O)N2CCC(C)CC2)cc1OCC`, more than 52.3 µg/mL.
To `COc1ccc(S(=O)(=O)N2CCCCCC2)cc1N` belongs more than 42.7 µg/mL; to `Cc1ccc(C(=O)NC(C)C2CCCO2)o1` (stereo not given), more than 33.5 µg/mL.
To `CCOC(=O)C(=O)C1=CN(Cc2ccccc2)C=C(C#N)C1` belongs more than 44.4 µg/mL.
`CCc1ccc(C(=O)Nc2ccc3nc(C)ccc3c2)cc1` gave a solubility (kinetic) of less than 0.3 µg/mL.
`COc1ccc(-c2csc(Nc3ccc(C)cn3)n2)cc1OC`: the solubility (kinetic) was 1.3 µg/mL (≈ 3.97 µM).
With `Cc1cc(-c2onc(C)c2C(=O)Oc2ccc(Cl)cc2)no1` the figure was 0.5 µg/mL (≈ 1.57 µM).
In turn, `N/C(=N/S(=O)(=O)c1ccccc1)c1cccc([N+](=O)[O-])c1` showed a solubility (kinetic) of more than 45.8 µg/mL.
`CCSC1=C(C#N)C(c2ccc(C)o2)CC(=O)N1` (stereo not given) returned a solubility (kinetic) of more than 39.3 µg/mL.
Regarding `O=C1OCCN/C1=C\C(=O)c1ccccc1`, the solubility (kinetic) is more than 32.6 µg/mL.
In turn, `COc1ccc(/C(C)=N/N2C(C)CCCC2C)c(OC)c1` (stereo not given) displayed a kinetic solubility of more than 43.6 µg/mL.
`Oc1ccc2ccccc2c1C=Nc1ccccc1`: the solubility (kinetic) is less than 0.5 µg/mL.
To `CCOc1ccc(NC(=S)N(CCc2ccncc2)C(C)C)cc1` belongs 48.8 µg/mL (≈ 142 µM).
With `O=C(NCC1CCCO1)c1ccc(NC(=O)c2ccc(Br)cc2)cc1` (stereo not given) the figure was 1.2 µg/mL (≈ 2.98 µM).
To `O=C(NCc1cccnc1)Nc1cccc(Cl)c1Cl` belongs 27.7 µg/mL (≈ 93.5 µM); to `COC(=O)c1ccc(OC(=O)c2cnccn2)cc1`, more than 38.7 µg/mL; to `O=C(CCc1ccccc1)OCC(=O)c1cccc([N+](=O)[O-])c1`, more than 47 µg/mL.
`O=C(NCC1CCCCC1)c1ccc(F)cc1Cl`: the kinetic solubility is 20.4 µg/mL (≈ 75.6 µM).
With `O=C(Nc1nccs1)c1cncc(Br)c1` the figure was 20.4 µg/mL (≈ 71.8 µM).
With `COc1ccc(Cn2cc(F)c(=O)n(C)c2=O)cc1[N+](=O)[O-]`, the kinetic solubility came to 42.8 µg/mL (≈ 138 µM). Compared with the last molecule, the solubility kinetic is about 2.1-fold higher.
`CCCN(Cc1ccco1)S(=O)(=O)c1ccc(OC)c(OC)c1` registered a solubility (kinetic) of 41.3 µg/mL (≈ 122 µM). The solubility kinetic values of the last two molecules are within 1.5-fold of each other.
Take `O=C(NC1CCS(=O)(=O)C1)c1sc2ccccc2c1Cl` (stereo not given): the kinetic solubility is 12.2 µg/mL (≈ 37 µM).
To `COc1ccccc1Nc1nc(N)nc(CN2CC(C)CC(C)C2)n1` (stereo not given) belongs 14 µg/mL (≈ 40.9 µM); to `O=C(CCN1C(=O)c2ccccc2S1(=O)=O)Nc1ccccc1F`, more than 52.3 µg/mL; to `Cc1ccc(-n2c(C)cc(/C=C3\SC(=O)NC3=O)c2C)cc1`, less than 0.3 µg/mL.
`CC(C)(C)C(=O)Nc1ccc(S(=O)(=O)NC2=NCCCCC2)cc1` registered a solubility (kinetic) of more than 52.7 µg/mL.
To `Cc1cccc(C(=O)Nc2ccc(C(=O)c3ccccc3)cc2)c1` belongs less than 0.7 µg/mL; to `Nc1cccc2cnccc12`, 1.4 µg/mL (≈ 9.71 µM); to `CC(=O)c1c(C)[nH]c(C(=O)Nc2ccccc2Cl)c1C`, 2.7 µg/mL (≈ 9.29 µM).
The molecule `COc1ccc(S(=O)(=O)N2CCN(C(=O)N(C)C)C2C)cc1` (stereo not given) had a solubility (kinetic) of more than 49.1 µg/mL.
In turn, `Cc1ccc(N2C(=O)CC(Cc3cc(C)cc(C)c3)C2=O)cc1` (stereo not given) had a solubility (kinetic) of 8.8 µg/mL (≈ 28.6 µM).
The molecule `S=C(Nc1ccc2[nH]ccc2c1)NC1CCCCC1` yielded a solubility (kinetic) of 37 µg/mL (≈ 135 µM).
With `CN(C)CCOC1c2ccccc2CCc2ccc3ccccc3c21.O=C(O)C(=O)O` (stereo not given) the figure was more than 63.2 µg/mL.
Molecule `COc1ccc(NC(=S)NC(=O)c2ccc3c(c2)OCCO3)cc1` gave a kinetic solubility of 2.1 µg/mL (≈ 6.1 µM).
To `Cc1ccc(C(=O)Nc2ccncc2)c(Cl)c1` belongs more than 37 µg/mL; to `O=[N+]([O-])c1ccccc1CN1CCN(c2ncccn2)CC1`, 34.8 µg/mL (≈ 116 µM).
To `COCCNC(=O)c1ccc2c(c1)CCN2S(C)(=O)=O` belongs 44.7 µg/mL (≈ 150 µM); to `O=C(Nc1cccc(Cl)c1N1CCOCC1)c1cccnc1`, more than 47.7 µg/mL; to `Cc1ccc(-c2cc(C(=O)Nc3cc(C)ccc3O)no2)cc1`, less than 0.3 µg/mL.
To `CCOc1nc(Nc2ccccc2)nc(OCC)n1` belongs 38 µg/mL (≈ 146 µM).
Consider `Cc1ccnc(N2CCCC(C(=O)Nc3ccc(C)c(C)c3)C2)n1` (stereo not given), for which the kinetic solubility came out at 1.4 µg/mL (≈ 4.32 µM).
Regarding `NC(=O)C1(C(N)=O)OC1c1ccc(Cl)c(Cl)c1` (stereo not given), the solubility (kinetic) was more than 41.3 µg/mL.
`Cc1ccc(NC(=O)Nc2ccon2)cc1` came in with a solubility (kinetic) of more than 32.6 µg/mL.
With `COc1cccc(CN2CCN(C3CCOCC3)CC2CCO)c1` (stereo not given) the figure was 46.3 µg/mL (≈ 138 µM).
With `O=c1nc2n(c3ncccc13)CCCCC2` the figure was more than 32.3 µg/mL.

For orientation: solubility (kinetic) means solubility judged after dilution from a stock solution rather than from solid.
